Laboratory results reported in patent US6984649B1, “Pyridine derivatives” (Bayer Aktiengesellschaft, priority 2000, dated 2006).
Where a name gives a salt, the structure may show the parent alone.

molecular target: T1, human IKK-β (Homo sapiens, UniProt O14920); assay: IKK-β kinase inhibitory assay; assay type: biochemical; details: compounds as yielded by solid phase synthesis, purity about 40 to 90%, read-out: In vitro activity grade (In vitro IC50)
T1 construct: A cDNA fragment encoding human IKK-β open reading frame was generated by PCR; His tag (from pcDNA3.1/His C); made in house; host or cells: Sf21 insect cells (baculovirus); substrate made in E. coli
T1 sequence (O14920 1-756): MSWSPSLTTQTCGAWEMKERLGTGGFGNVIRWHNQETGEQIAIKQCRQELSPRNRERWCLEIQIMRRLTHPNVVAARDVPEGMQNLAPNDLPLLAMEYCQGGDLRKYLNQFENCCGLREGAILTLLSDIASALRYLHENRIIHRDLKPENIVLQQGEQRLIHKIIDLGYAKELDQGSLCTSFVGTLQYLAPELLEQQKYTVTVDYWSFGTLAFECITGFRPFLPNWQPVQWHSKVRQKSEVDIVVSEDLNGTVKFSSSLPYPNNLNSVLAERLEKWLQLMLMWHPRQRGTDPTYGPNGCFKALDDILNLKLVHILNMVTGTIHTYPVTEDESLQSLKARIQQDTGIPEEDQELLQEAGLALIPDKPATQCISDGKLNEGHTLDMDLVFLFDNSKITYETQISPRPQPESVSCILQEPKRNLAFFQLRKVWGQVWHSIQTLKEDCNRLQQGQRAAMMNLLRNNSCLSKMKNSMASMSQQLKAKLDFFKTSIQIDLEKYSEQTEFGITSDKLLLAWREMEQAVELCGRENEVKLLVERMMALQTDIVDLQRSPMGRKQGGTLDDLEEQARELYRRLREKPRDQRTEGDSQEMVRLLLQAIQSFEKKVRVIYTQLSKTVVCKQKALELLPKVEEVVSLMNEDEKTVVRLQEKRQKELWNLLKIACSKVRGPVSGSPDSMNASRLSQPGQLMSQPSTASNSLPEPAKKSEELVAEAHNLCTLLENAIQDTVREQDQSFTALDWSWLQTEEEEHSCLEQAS
In short: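 His-tagged human IKK-β from baculovirus-infected Sf21 cells (0.6 μg/ml final) phosphorylates biotinylated GST-IκBα(1-54) (0.2 μM) in Tris-HCl pH 7.6 buffer with MgCl2. ATP with [γ-33P]ATP added, then 2 h at room temperature. Biotinylated substrate captured on streptavidin plates; bound radioactivity counted by scintillation.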

| SMILES | IC50 |
| --- | --- |
| COc1ccc(C[C@H](N)c2cc(-c3ccccc3O)nc(N)c2C#N)cc1 [Example 1-26] | < 500 nM |
| N#Cc1c([C@H](Cc2ccccc2)NC(=O)CCN2CCCCC2)cc(-c2ccccc2O)nc1N [Example 1-40] | 500 to 2000 nM |
| N#Cc1c(C2CCCNC2)cc(-c2cccc(F)c2O)nc1N (stereo not shown) [Example 1-19] | < 500 nM |
| CC(C)[C@H](N)c1cc(-c2ccccc2O)nc(N)c1C#N [Example 1-33] | < 500 nM |
| N#Cc1c(C2CCCNC2)cc(-c2ccc(O)cc2O)nc1N (stereo not shown) [Example 1-18] | 500 to 2000 nM |
| N#Cc1c(CCO)cc(-c2ccccc2O)nc1N [Example 1-44] | 500 to 2000 nM |
| N#Cc1c(C2CCCNC2)cc(-c2c(O)cccc2OCc2cccc(C(F)(F)F)c2)nc1N (stereo not shown) [Example 2-09] | < 500 nM |
| N#Cc1c([C@@H](N)Cc2ccc(F)cc2)cc(-c2ccccc2O)nc1N [Example 1-30] | < 500 nM |
| N#Cc1c(C2CCCC(N)C2)cc(-c2ccccc2O)nc1N (stereo not shown) [Example 1-23] | < 500 nM |
| N#Cc1c([C@@H]2CCCN2)cc(-c2ccccc2O)nc1N [Example 1-31] | 500 to 2000 nM |
| N#Cc1c(C2CCCNC2)cc(-c2cccc(Cl)c2O)nc1N (stereo not shown) [Example 1-20] | < 500 nM |
| CC(N)Cc1cc(-c2ccccc2O)nc(N)c1C#N (stereo not shown) [Example 1-36] | < 500 nM |

Second part, the compound after the results:

| IC50 | SMILES |
| --- | --- |
| < 500 nM | CCOC(=O)N1Cc2c(C3CCCNC3)cc(-c3c(O)cccc3OCC3CC3)nc2NC1=O (stereo not shown) [Example 24-2, ethyl 7-[2-(cyclopropylmethoxy)-6-hydroxyphenyl]-2-oxo-5-(3-piperidinyl)-1,4-dihydropyrido[2,3-d]pyrimidine-3(2H)-carboxylate hydrochloride] |
| < 500 nM | CCCCCCCOc1cccc(O)c1-c1cc(C2CCCNC2)c(C#N)c(N)n1 (stereo not shown) [Example 2-64] |
| < 500 nM | C=CCOc1cccc(O)c1-c1cc(C2CCNCC2)c(C#N)c(N)n1 [Example 2-74] |
| < 500 nM | CCOc1cccc(O)c1-c1cc(C2CCNCC2)c(C#N)c(N)n1 [Example 2-75] |
| < 500 nM | N#Cc1c(C2CCCNC2)cc(-c2c(O)cccc2OCCN2CCOCC2)nc1N (stereo not shown) [Example 2-84] |
| < 500 nM | N#Cc1ccc(COc2cccc(O)c2-c2cc(C3CCCNC3)c(C#N)c(N)n2)cc1 (stereo not shown) [Example 2-16] |
| < 500 nM | CCOC(=O)c1cc2c(C3CCCNC3)cc(-c3ccccc3O)nc2[nH]c1=O (stereo not shown) [Example 25-1, ethyl 7-(2-hydroxyphenyl)-2-oxo-5-(3-piperidinyl)-1,2-dihydro-1,8-naphthyridine-3-carboxylate hydrochloride] |
| 2000 to 10000 nM | N#Cc1c(C2CCCNC2)cc(-c2c(O)cccc2OCCN2CCCCCC2)nc1N (stereo not shown) [Example 2-86] |
| < 500 nM | N#Cc1c(C2CCCNC2)cc(-c2c(O)cccc2OCc2ccc(C(F)(F)F)cc2)nc1N (stereo not shown) [Example 2-10] |
| < 500 nM | N#Cc1c(C2CCNCC2)cc(-c2c(O)cccc2OCC2CCC2)nc1N [Example 2-68] |
| < 500 nM | N#Cc1c(C2CCCNC2)cc(-c2c(O)cccc2OCc2ccc3ccccc3c2)nc1N (stereo not shown) [Example 2-21] |
| < 500 nM | O=C1Nc2nc(-c3c(O)cccc3OCC3CC3)cc(C3CCCNC3)c2CN1C(=O)NC1CCCCC1 (stereo not shown) [Example 24-3, N-cyclohexyl-7-[2-(cyclopropylmethoxy)-6-hydroxyphenyl]-2-oxo-5-(3-piperidinyl)-1,4-dihydropyrido[2,3-d]pyrimidine-3(2H)-carboxamide hydrochloride] |
| < 500 nM | CCCCCCCOc1cccc(O)c1-c1cc(C2CCNCC2)c(C#N)c(N)n1 [Example 2-73] |
| < 500 nM | N#Cc1cccc(COc2cccc(O)c2-c2cc(C3CCCNC3)c(C#N)c(N)n2)c1 (stereo not shown) [Example 2-15] |
| < 500 nM | N#Cc1c(C2CCNCC2)cc(-c2c(O)cccc2OCC2CCCO2)nc1N (stereo not shown) [Example 2-82] |
| < 500 nM | CC(C)CCCOc1cccc(O)c1-c1cc(C2CCCNC2)c(C#N)c(N)n1 (stereo not shown) [Example 2-63] |
